# Experimental data reported in US11535643B2, “Macrolides with modified desosamine sugars and uses thereof” (President and Fellows of Harvard College, priority 2015, dated 2022).
# Where two headings read alike, the source gives them in different places.
# Legend:
# Format in all cases: cell-based
# S. aureus = experiment: Broth dilution MIC determination (CLSI) against S. aureus strains; conditions: for MIC: Staphylococcus aureus
# Summary of the method: (§1)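 Macrolide MICs come from CLSI-standard broth dilution testing of distinct strains, several multidrug-resistant, selected with attention to macrolide resistance mechanisms; two reference macrolides, azithromycin and solithromycin, were included.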
# S. pneumoniae = experiment: Broth dilution MIC determination (CLSI) against S. pneumoniae strains; conditions: for MIC: Streptococcus pneumoniae
# Summary of the method: as §1
# S. pyogenes = experiment: Broth dilution MIC determination (CLSI) against S. pyogenes strains; conditions: for MIC: Streptococcus pyogenes
# Summary of the method: as §1
# E. faecalis = experiment: Broth dilution MIC determination (CLSI) against E. faecalis strains; conditions: for MIC: Enterococcus faecalis
# Summary of the method: as §1
# E. coli = experiment: Broth dilution MIC determination (CLSI) against E. coli strains; conditions: for MIC: Escherichia coli
# Summary of the method: as §1
# A. baumannii = experiment: Broth dilution MIC determination (CLSI) against A. baumannii strains; conditions: for MIC: Acinetobacter baumannii
# Summary of the method: as §1
# K. pneumoniae = experiment: Broth dilution MIC determination (CLSI) against K. pneumoniae strains; conditions: for MIC: Klebsiella pneumoniae
# Summary of the method: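 CLSI broth-dilution MICs across a panel including multidrug- and macrolide-resistant strains, with azithromycin and solithromycin as control compounds.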
# P. aeruginosa = experiment: Broth dilution MIC determination (CLSI) against P. aeruginosa strains; conditions: for MIC: Pseudomonas aeruginosa
# Summary of the method: as §1
# H. influenzae = experiment: Broth dilution MIC determination (CLSI) against H. influenzae strains; conditions: for MIC: Haemophilus influenzae
# Description: Minimum inhibitory concentrations (MICs) for macrolides described herein have been determined for unique strains of S. aureus, S. pneumoniae, S. pyogenes, E. faecalis, E. coli, A. baumannii, K. pneumoniae, P. aeruginosa, and H. influenzae, including several multidrug-resistant strains, with a special focus on macrolide resistant mechanisms. Azithromycin and solithromycin were included as control compounds. CLSI standard procedures for broth dilution MIC determination were used. Data for exemplary compounds described herein is shown in Tables M1-M7 and in Tables N1-N4.
# [1] = ATCC29213, ATCC29213, read-out: MIC S. aureus ATCC29213
# [2] = MRSA / USA100, MRSA: USA100, read-out: MIC S. aureus MRSA: USA100
# [3] = MRSA / USA300, MRSA: USA300, read-out: MIC S. aureus MRSA: USA300
# [4] = USA600, USA600, GISA, read-out: MIC S. aureus USA600, GISA
# [5] = read-out: MIC S. aureus erm A genotype
# [6] = ATCC49619, ATCC49619, read-out: MIC S. pneumoniae ATCC49619
# [7] = erm B + mef A genotype, read-out: MIC S. pneumoniae erm B + mef A genotype
# [8] = erm B + tet(M, O) genotype, read-out: MIC S. pneumoniae erm B + tet(M, O) genotype
# [9] = read-out: MIC S. pneumoniae mef A genotype, mef A genotype
# [10] = ATCC19615, ATCC19615, read-out: MIC S. pyogenes ATCC19615
# [11] = macrolide-resistant, read-out: MIC S. pyogenes macrolide-resistant
# [12] = ATCC29212, ATCC29212, read-out: MIC E. faecalis ATCC29212
# [13] = Vancomycin-resistant, read-out: MIC E. faecalis Vancomycin-resistant
# [14] = ATCC25922, ATCC25922, read-out: MIC E. coli ATCC25922
# [15] = read-out: MIC E. coli NDM-1, NDM-1
# [16] = ATCC19606, ATCC19606, read-out: MIC A. baumannii ATCC19606
# [17] = imipenem-resistant, read-out: MIC A. baumannii imipenem-resistant
# [18] = ATCC10031, ATCC10031, read-out: MIC K. pneumoniae ATCC10031
# [19] = KPC-2, read-out: MIC K. pneumoniae KPC-2
# [20] = ATCC27853, read-out: MIC P. aeruginosa ATCC27853
# [21] = ATCC49247, ATCC49247, read-out: MIC H. influenzae ATCC49247
# [22] = erythro > 4, azithro 1, read-out: MIC H. influenzae erythro > 4, azithro 1
# [23] = read-out: MIC S. pneumoniae mef A genotype, mef A genotype, first of two such columns (c3)
smiles,measurement,setting,value
"CC[C@H]1OC(=O)[C@@](C)(F)C(=O)[C@H](C)[C@@H](O[C@@H]2O[C@H](C)C[C@H](N(C)C)[C@H]2O)[C@](C)(OC)C[C@@H](C)C(=O)[C@H](C)[C@H]2N(CCCCn3cc(-c4cccc(N)c4)nn3)C(=O)O[C@]12C [Solithromycin, solithromycin, reference compound]",MIC,S. aureus; [1],0.125 µg/mL
same,MIC,S. aureus; [2],> 32 µg/mL
same,MIC,S. aureus; [3],1 µg/mL
same,MIC,S. aureus; [4],> 32 µg/mL
same,MIC,S. aureus; [5],> 32 µg/mL
same,MIC,S. pneumoniae; [6],< 0.0312 µg/mL
same,MIC,S. pneumoniae; [7],0.25 µg/mL
same,MIC,S. pneumoniae; [8],< 0.0312 µg/mL
same,MIC,S. pneumoniae; [9],0.125 µg/mL
same,MIC,S. pyogenes; [10],< 0.0312 µg/mL
same,MIC,S. pyogenes; [11],0.0625 µg/mL
same,MIC,E. faecalis; [12],< 0.0312 µg/mL
same,MIC,E. faecalis; [13],32 µg/mL
same,MIC,E. coli; [14],32 µg/mL
same,MIC,"E. coli; read-out: MIC E. coli CTX-M-14, CTX-M-14",> 32 µg/mL
same,MIC,E. coli; [15],> 32 µg/mL
same,MIC,"E. coli; read-out: MIC E. coli TEM-1, TEM-1",32 µg/mL
same,MIC,A. baumannii; [16],8 µg/mL
same,MIC,"A. baumannii; IMP-4, read-out: MIC A. baumannii IMP-4",> 32 µg/mL
same,MIC,"A. baumannii; chromosomal class C, read-out: MIC A. baumannii chromosomal class C",8 µg/mL
same,MIC,A. baumannii; [17],4 µg/mL
same,MIC,K. pneumoniae; [18],8 µg/mL
same,MIC,K. pneumoniae; [19],> 32 µg/mL
same,MIC,"K. pneumoniae; SHV-12, read-out: MIC K. pneumoniae SHV-12",> 32 µg/mL
same,MIC,"K. pneumoniae; TEM-10, read-out: MIC K. pneumoniae TEM-10",> 32 µg/mL
same,MIC,P. aeruginosa; [20],> 32 µg/mL
same,MIC,P. aeruginosa; read-out: MIC P. aeruginosa HPA101-1477,> 32 µg/mL
same,MIC,H. influenzae; [21],4 µg/mL
same,MIC,H. influenzae; [22],2 µg/mL
CCC1OC(=O)C(C)C(=O)C(C)C(OC2OC(Cn3cc(-c4cccc(N)n4)nn3)CC(N(C)C)C2O)C(C)(OC)CC(C)CNC(C)C2N(CCCCn3cc(-c4cccc(N)c4)nn3)C(=O)OC12C (centres unmarked) [FSM-22372],MIC S. aureus ATCC29213,S. aureus; ATCC29213,>32 µg/mL
same,MIC S. aureus MRSA: USA100,S. aureus; MRSA: USA100,>32 µg/mL
same,MIC S. aureus MRSA: USA300,S. aureus; MRSA: USA300,>32 µg/mL
same,"MIC S. aureus USA600, GISA","S. aureus; USA600, GISA",>32 µg/mL
same,MIC S. aureus erm A genotype,S. aureus; erm A genotype,>32 µg/mL
same,MIC S. pneumoniae ATCC49619,S. pneumoniae; ATCC49619,<0.03125 µg/mL
same,MIC S. pneumoniae erm B + mef A genotype,S. pneumoniae; erm B + mef A genotype,>32 µg/mL
same,"MIC S. pneumoniae erm B + tet(M, O) genotype","S. pneumoniae; erm B + tet(M, O) genotype",<0.03125 µg/mL
same,MIC S. pyogenes ATCC19615,S. pyogenes; ATCC19615,<0.03125 µg/mL
same,MIC S. pyogenes macrolide-resistant,S. pyogenes; macrolide-resistant,8 µg/mL
same,MIC E. faecalis ATCC29212,E. faecalis; ATCC29212,16 µg/mL
same,MIC E. faecalis Vancomycin-resistant,E. faecalis; Vancomycin-resistant,>32 µg/mL
same,MIC E. coli ATCC25922,E. coli; ATCC25922,>32 µg/mL
same,MIC E. coli CTX-M-14,E. coli; CTX-M-14,>32 µg/mL
same,MIC E. coli NDM-1,E. coli; NDM-1,>32 µg/mL
same,MIC E. coli TEM-1,E. coli; TEM-1,>32 µg/mL
same,MIC A. baumannii ATCC19606,A. baumannii; ATCC19606,>32 µg/mL
same,MIC A. baumannii IMP-4,A. baumannii; IMP-4,>32 µg/mL
same,MIC A. baumannii chromosomal class C,A. baumannii; chromosomal class C,>32 µg/mL
same,MIC A. baumannii imipenem-resistant,A. baumannii; imipenem-resistant,>32 µg/mL
same,MIC K. pneumoniae ATCC10031,K. pneumoniae; ATCC10031,>32 µg/mL
same,MIC K. pneumoniae KPC-2,K. pneumoniae; KPC-2,>32 µg/mL
same,MIC K. pneumoniae SHV-12,K. pneumoniae; SHV-12,>32 µg/mL
same,MIC K. pneumoniae TEM-10,K. pneumoniae; TEM-10,>32 µg/mL
same,MIC P. aeruginosa ATCC27853,P. aeruginosa; ATCC27853,>32 µg/mL
same,MIC P. aeruginosa HPA101-1477,P. aeruginosa; HPA101-1477,>32 µg/mL
same,MIC H. influenzae ATCC49247,H. influenzae; ATCC49247,16 µg/mL
same,"MIC H. influenzae erythro > 4, azithro 1","H. influenzae; erythro > 4, azithro 1",16 µg/mL
CC[C@H]1OC(=O)[C@H](C)C(=O)[C@H](C)[C@@H](O[C@@H]2OC(CNC(=O)CNC(C)(C)C)CC(N(C)C)C2O)[C@](C)(OC)C[C@@H](C)CN[C@H](C)[C@H]2N(CCCCn3cc(-c4cccc(N)c4)nn3)C(=O)O[C@]12C (some centres unmarked) [FSM-21879],MIC,S. aureus; [1],32 µg/mL
same,MIC,S. aureus; [2],> 32 µg/mL
same,MIC,S. aureus; [3],> 32 µg/mL
same,MIC,S. aureus; [4],> 32 µg/mL
same,MIC,S. aureus; [5],> 32 µg/mL
same,MIC,S. pneumoniae; [6],< 0.0313 µg/mL
same,MIC,S. pneumoniae; [7],1 µg/mL
same,MIC,S. pneumoniae; [8],< 0.0313 µg/mL
same,MIC,S. pneumoniae; [9],4 µg/mL
same,MIC,S. pneumoniae; [23],0.25 µg/mL
same,MIC,S. pyogenes; [10],< 0.0313 µg/mL
same,MIC,S. pyogenes; [11],2 µg/mL
same,MIC,E. faecalis; [12],16 µg/mL
same,MIC,E. faecalis; [13],> 32 µg/mL
same,MIC,E. coli; [14],32 µg/mL
same,MIC,E. coli; [15],32 µg/mL
same,MIC,A. baumannii; [16],> 32 µg/mL
same,MIC,A. baumannii; [17],> 32 µg/mL
same,MIC,K. pneumoniae; [18],8 µg/mL
same,MIC,K. pneumoniae; [19],> 32 µg/mL
same,MIC,P. aeruginosa; [20],> 32 µg/mL
same,MIC,H. influenzae; [21],16 µg/mL
same,MIC,H. influenzae; [22],8 µg/mL
CC[C@H]1OC(=O)[C@H](C)C(=O)[C@H](C)[C@@H](O[C@@H]2OC(CNC(=O)c3cc[nH]n3)CC(N(C)C)C2O)[C@](C)(OC)C[C@@H](C)CN[C@H](C)[C@H]2N(CCCCn3cc(-c4cccc(N)c4)nn3)C(=O)O[C@]12C (some centres unmarked) [FSM-21888],MIC,S. aureus; [1],32 µg/mL
same,MIC,S. aureus; [2],> 32 µg/mL
same,MIC,S. aureus; [3],> 32 µg/mL
same,MIC,S. aureus; [4],> 32 µg/mL
same,MIC,S. aureus; [5],> 32 µg/mL
same,MIC,S. pneumoniae; [6],< 0.0313 µg/mL
same,MIC,S. pneumoniae; [7],2 µg/mL
same,MIC,S. pneumoniae; [8],< 0.0313 µg/mL
same,MIC,S. pneumoniae; [23],0.25 µg/mL
same,MIC,S. pyogenes; [10],< 0.0313 µg/mL
same,MIC,S. pyogenes; [11],1 µg/mL
same,MIC,E. faecalis; [12],4 µg/mL
same,MIC,E. faecalis; [13],> 32 µg/mL
same,MIC,E. coli; [14],32 µg/mL
same,MIC,E. coli; [15],> 32 µg/mL
same,MIC,A. baumannii; [16],> 32 µg/mL
same,MIC,A. baumannii; [17],> 32 µg/mL
same,MIC,K. pneumoniae; [18],8 µg/mL
same,MIC,K. pneumoniae; [19],> 32 µg/mL
same,MIC,P. aeruginosa; [20],> 32 µg/mL
same,MIC,H. influenzae; [21],8 µg/mL
same,MIC,H. influenzae; [22],8 µg/mL
C=CCOC(=O)NCC1CC(N(C)C)C(O)[C@H](O[C@@H]2[C@@H](C)C(=O)[C@@H](C)C(=O)O[C@H](CC)[C@@]3(C)OC(=O)N(CCCCn4cc(-c5cccc(N)c5)nn4)[C@@H]3[C@@H](C)NC[C@H](C)C[C@@]2(C)OC)O1 (some centres unmarked) [FSM-21795],MIC,S. aureus; [1],16 µg/mL
same,MIC,S. aureus; [2],> 32 µg/mL
same,MIC,S. aureus; [3],> 32 µg/mL
same,MIC,S. aureus; [4],> 32 µg/mL
same,MIC,S. aureus; [5],> 32 µg/mL
same,MIC,S. pneumoniae; [6],0.25 µg/mL
same,MIC,S. pneumoniae; [7],> 32 µg/mL
same,MIC,S. pneumoniae; [8],0.0625 µg/mL
same,MIC,S. pneumoniae; [9],16 µg/mL
same,MIC,S. pneumoniae; [23],4 µg/mL
same,MIC,S. pyogenes; [10],0.0625 µg/mL
same,MIC,S. pyogenes; [11],2 µg/mL
same,MIC,E. faecalis; [12],1 µg/mL
same,MIC,E. faecalis; [13],> 32 µg/mL
same,MIC,E. coli; [14],16 µg/mL
same,MIC,E. coli; [15],> 32 µg/mL
same,MIC,A. baumannii; [16],32 µg/mL
same,MIC,A. baumannii; [17],32 µg/mL
same,MIC,K. pneumoniae; [18],8 µg/mL
same,MIC,K. pneumoniae; [19],> 32 µg/mL
same,MIC,P. aeruginosa; [20],32 µg/mL
same,MIC,H. influenzae; [21],4 µg/mL
same,MIC,H. influenzae; [22],8 µg/mL
